The structures appear in SMILES notation. Where “and” joins values, the source holds several entries; their conditions need not be identical. Equal entries are not always repeated.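 All cell lines were grown in 96-well plates and treated with compound for 48 hours. Abbreviation: GI50, concentration required for 50% inhibition of growth. Definition used: TGI = concentration required for complete inhibition of growth.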

Holding throughout (assay): growth of human tumour cells (NCI), 48 h
In assay [1] the test system is UACC-62 melanoma.
Assay [2] relates to NCI-H23 lung.
In assay [3] the test system is T-47D breast.
For assay [4], the system named is PC-3 prostate.
The test system of assay [5] is NCI-H460 lung.
In assay [6] the test system is HT29 colon.
Assay [7] has as its system U251 CNS.
Assay [8] deals with CAKI-1 renal.
Assay [9] has as its system K-562 leukemia.
For assay [10], the system named is BT-549 breast.

For the molecule `Cc1cc(S(=O)(=O)Nc2nc3ccsc3c(=O)n2Cc2ccccc2)c(S)cc1Cl`, the GI50 in [1] was 21.5 µM; in assay [2], 24.9 µM; in assay [3] it was 52.4 µM; in [4], 40.4 µM; in assay [5], 23.6 µM; in assay [6] it was 43.7 µM. Further, the GI50 is 35.9 µM in assay [7], 41.2 µM in [8], 67.9 µM in assay [9] and 28 µM in assay [10]. The TGI was 44.4 µM in assay [1]; 57.5 µM in assay [2]; more than 100 µM in assay [3]; more than 100 µM in assay [4]; 71 µM in [5]; more than 100 µM in assay [6]. Also, the TGI in assay [7] was more than 100 µM; in assay [8] it was more than 100 µM; in assay [9] it was more than 100 µM; in [10], 89.8 µM.

For the molecule `Cc1ccc(C(=O)Nc2ccccc2C(=O)N/N=C(\c2ccccc2)c2ccccn2)cc1`, the GI50 in [1] is 0.36 µM; in assay [2], 0.723 µM; in [3], 0.493 µM; in [4] it was 1.1 µM; in [5] it was 0.211 µM; in assay [6] it was 0.25 µM. Further, the GI50 in assay [7] is 0.485 µM; in [8], 0.324 µM; in assay [9], 0.855 µM; in assay [10], 0.517 µM. For the same molecule, the TGI in [1] is 6.7 µM; in assay [2] it was more than 100 µM; in assay [3], more than 100 µM; in assay [4], more than 100 µM; in assay [5] it was more than 100 µM; in [6], more than 100 µM. The TGI in assay [7], in assay [8], in assay [9] and in assay [10] was more than 100 µM throughout.

In the case of `CCCCCCCCCCC(CN(CC)CC)C(O)c1ccccc1` (stereo not given), the GI50 in assay [1] is 1.78 µM; in [2], 1.93 µM; in assay [3] it was 1.84 µM; in [4], 1.62 µM; in assay [5], 1.88 µM; in assay [6], 1.76 µM. Also, the GI50 in assay [7] is 1.86 µM; in assay [8] it was 1.51 µM; in assay [9], 2.03 µM; in assay [10], 2.02 µM. For the same molecule, the TGI in [1] was 3.46 µM; in assay [2], 3.74 µM; in [3] it was 4.31 µM; in assay [4], 3.13 µM; in assay [5] it was 3.5 µM; in assay [6], 3.81 µM. The TGI in [7] is 3.56 µM; in assay [8] it was 2.92 µM; in [9], 4.67 µM; in [10], 4.21 µM.

Regarding `O=C1c2c(O)cccc2C(C(=O)CCCC(=O)C2c3cccc(O)c3C(=O)c3c(O)cccc32)c2cccc(O)c21`, the TGI was 2.04 µM in assay [1]; 1.13 µM in assay [2]; 0.941 µM in assay [3]; 0.467 µM in [4]; 0.661 µM in assay [5]; 2.48 µM in assay [6]. In addition, the TGI was found to be 1.88 µM in assay [7], 4.45 µM in [8], 4.86 µM in [9] and 4.74 µM in assay [10].

Consider `CN1CCN(c2ccc([N+](=O)[O-])c3no[n+]([O-])c23)CC1`, for which the GI50 is 0.471 µM in [1]; 0.173 µM in [2]; 0.6 µM in assay [3]; 0.412 µM in [4]; 0.118 µM in [5]; 0.135 µM in assay [6]. Further, the GI50 in assay [7] is 0.189 µM; in assay [8], 0.137 µM; in assay [9] it was 0.11 µM; in assay [10], 0.841 µM. Further, the TGI in [1] is 2.64 µM and 1.84 µM; in [2], 0.389 µM and 1.02 µM; in assay [3] it was 1.16 µM and 2.65 µM; in [4], 2.21 µM and 1.94 µM; in assay [5], 1.17 µM and 0.764 µM; in assay [6], 3.43 µM and 0.512 µM. The TGI in assay [7] is 1.41 µM and 0.618 µM; in [8] it was 1.6 µM and 0.92 µM; in [9], 0.979 µM; in assay [10] it was 4.64 µM and 2.12 µM.

On to `CC(C)c1ccc(O)c(O)c(=O)c1` (tested in a mixture with another compound), for which the TGI in assay [1] is 12.1 µM; in assay [2], more than 26.3 µM; in assay [3], more than 68.6 µM; in assay [4], 15.6 µM; in [5] it was 0.899 µM; in assay [6] it was more than 100 µM. Moreover, the TGI in assay [7] was 4.98 µM; in [8], more than 52.2 µM; in assay [9], more than 100 µM; in assay [10] it was 98.9 µM.

As to `NC(N)=N/N=C(/c1ccccc1)c1ccc(O)cc1O`, the TGI in assay [1] is more than 100 µM; in [2], more than 100 µM; in [3], more than 100 µM; in assay [4] it was more than 100 µM; in [5], 88.4 µM; in assay [6] it was 39.2 µM. The TGI in assay [7] was 57.3 µM; in [8] it was more than 100 µM; in [9], more than 100 µM; in [10], more than 100 µM.

Take `COc1ccc(Cn2cc3c(c2-c2ccccc2)CCc2cncnc2-3)cc1`: the GI50 was 3.47 µM in assay [1]; 10.6 µM in [2]; 3.47 µM in [3]; 8.71 µM in [4]; 3.48 µM in [5]; 3.9 µM in assay [6]. For the same molecule, the GI50 in [7] was 5.47 µM; in assay [8], 3.55 µM; in [9] it was 2.75 µM; in assay [10], 4.1 µM. The TGI came out at 16.5 µM in [1]; 39.3 µM in [2]; 27 µM in assay [3]; 31.1 µM in [4]; 13.1 µM in [5]; 12.9 µM in [6]. In addition, the TGI amounted to 18 µM in assay [7], 17.5 µM in [8], 11.3 µM in assay [9] and 14.7 µM in assay [10].

For the origin of these results see PubChem BioAssay (NCI).
